Experiment [1] relates to female Aedes aegypti adults. Description: High-throughput in vitro screening assay, spatial repellency. In kind it is in vivo. To be noted: for 30-minute RD50 compared with that of DEET: 30 minutes, α = 0.05; for RD50 (30 min), half-repellent dose / RD50 (60 min), half-repellent dose: dose per filter paper surface area, 95% CI; for spatial repellency (in words): highest-tested dose of 100 μg/cm^2. The source says: A high-throughput screening method for evaluating spatial repellency and vapor toxicity, described by Jiang S., et al. (2019, “High-Throughput Screening Method for Evaluating Spatial Repellency and Vapour Toxicity to Mosquitoes,” Med. Vet. Entomol. 33: 388-396), was used for this study. As shown in FIG. 2 of Jiang S., et al., assay tubes were constructed by covering 12.5 cm glass tubes on one side with netting secured by a rubber band. The tubes were used in horizontal orientation. Adult mosquitos 2-7 days old were anesthetized on ice for approximately 5 minutes and 16 females were transferred to each tube. The other end of the tube was then closed with netting and a rubber band.
The conical ends of 50 mL centrifuge tubes (Eppendorf, Enfield, Connecticut, USA) were cut at approximately the 10 mL mark to create the end caps for the assay tubes. […] For repellency tests, filter papers for the “untreated” side of the assay tube received pure acetone, whereas filter papers for the “treated” side received acetone solution containing a dissolved compound of interest. For knockdown tests, both filter papers were treated with acetone solution containing one or more compounds of interest. Acetone on both filter papers served as negative controls.
For repellency assays, filter papers were given 10 minutes of evaporation time before being placed into the end caps with forceps (Jiang S., et al. 2019, Supra). For knockdown assays, filter papers were given 5 minutes of evaporation time before being placed into the end caps. […] Assay tubes were capped such that the cap securely overlapped the glass but approximately 5 mm of space was left between the netting and the filter paper so that the mosquitos could not contact the filter paper.
Assay tubes were placed on a white polystyrene platform with wooden sticks glued flatly across it to prevent the tubes from rolling. A straight black line was drawn down the center of the platform and assay tubes were centered on the line at the beginning of the tests. In repellency assays, data were collected at 15, 30, and 60 minutes after the end caps were placed on the assay tubes. Assay tubes were not disturbed for the entire 60 minutes. At each time point, the number of mosquitos that remained on the treated side was visually assessed and recorded. The treated side was alternated with each set of tests. For repellency tests, DEET at a dose of 100 μg/cm^2 served as the positive control.
For the high-throughput in vitro screening assays, analyses were conducted with R version 4.2.2 statistical software (R Core Team, 2022, “R: a language and environment for statistical computing. R foundation for statistical computing,” Vienna, Austria). Concentrations were calculated in terms of filter paper surface area (μg/cm^2) for repellency assays and in terms of assay tube volume (μg/cm^3) for knockdown assays.
Half-repellent (RD50), half-knockdown (KD50), and half-lethal (LD50) doses were calculated from dose-response curves (DRCs) obtained by four-parameter log-logistic equation models generated using the drc package (Dose Response Curve Analyses Software; Ritz C. et al., 2015, “Dose-response analysis using R,” PLOS ONE 10: e0146021). For repellency test analysis, the upper and lower asymptotes for the proportion of mosquitos remaining on the treated side were fixed at 0.5 and 0, respectively. For KD and mortality test analysis, the upper and lower asymptotes for the proportion of mosquitos knocked down or killed were fixed at 1.0 and 0, respectively. To determine whether RD50, KD50, or LD50 values differed across compounds at each timepoint, a joint model assuming different values for each compound and a null model that assumed a single value for all compounds were compared with a likelihood ratio test.

For experiment [2], the system named is female Aedes aegypti adults. Description: Arm-in-cage cloth-patch in vivo assay (topical repellency). To be noted: for Minimum Effective Dose (MED): Mean ± SEM, lowest dosage with five or fewer bites through repellent-treated cloth in 1-minute exposure, at least three volunteers; for topical repellency (in words): initial screening dose of 0.187 mg/cm^2. The source says:
Arm-in-Cage Test Cloth-Patch in vivo Assay Pyrethroid-susceptible yellow fever mosquitoes Ae. aegypti (Orlando strain) were reared in the United States Department of Agriculture Mosquito and Fly Research Unit in Gainesville, FL under standard protocols. Three to seven-day-old, starved female mosquitoes were collected using a “draw box” (Posey, K. and Schreck, C. E, 1981, “An airflow apparatus for selecting female mosquitoes for use in repellent and attraction studies” Mosquito News 41: 566-568; US. Department of Agriculture, 1977, Repellent activity of compounds submitted by Walter Reed Army Institute of Research. Part 1. Protection time and minimum effective dosage against Aedes aegypti mosquitoes. Tech. Bull. No. 1549) and were placed in cages at an approximate density 200 mosquitoes/cage. Repellency was determined according to a standard protocol (Bernier, U. R., et al, 2022. “Evaluation and application of repellent-treated uniform/clothing and textiles against vector mosquitoes,” In Advances in Arthropod Repellents (pp. 69-94). Academic Press) and reported as the minimum effective dosage (MED). […] A nylon leg stocking was placed over the arm to prevent direct contact of the repellent-treated cloth patch with the skin. […]. Cloth was treated by placing a rolled bandage (50 cm^2) into each vial containing 1 mL of solution and allowing the patch to absorb the solution completely. The cloth was taped over a 4 by 9-cm opening cut into a vinyl plastic sheet that was draped around the volunteers' arms and taped in place. The cloth was air-dried approximately 15 min before conducting each test. The work reported here is an average of the MED for at least three volunteers. Each volunteer covered his or her arm with a nylon stocking to avoid contact between the skin and the treated cloth and wore a rubber glove to prevent mosquito bites on the hand.
. The minimum effective dose (MED) was determined for each repellent and subject, defined as the lowest concentration that prevents biting). MEDs from each subject were pooled and reported as the average among all replicates/subjects with SEM. A minimum of 3 replicates were performed on at least three human subjects. Written informed consent was obtained for all human subjects used in this study in accordance with IRB protocol #20193320, as approved by the WCG™ IRB.
Statistical Analyses: Student's T-test was used to compare the means between tested compound and DEET and Icaridin in the arm-in-cage in vivo assay and neurophysiological study.

Molecules are shown by their SMILES. Values joined by “and” are separate entries in the source; they are usually repeats but may differ in a detail not shown here. Equal entries are not always repeated. “Also recorded” adds a separate entry of the source.

For the compound `C=CCOC(=O)c1ccccc1N` [AA, allyl anthranilate], in experiment [1], the “30-minute RD50 compared with that of DEET” value is given as “significantly lower than that of DEET”. The “Minimum Effective Dose (MED)” value in experiment [2] is on record as 0.039 mg/cm^2.
As to `O=C(OCc1ccccc1)c1ccccc1` [BB, benzyl benzoate], in experiment [1], the “RD50 (30 min), half-repellent dose” value is listed as over 100 μg/cm^2; the “RD50 (60 min), half-repellent dose” value is over 100 μg/cm^2; the “spatial repellency (in words)” value is recorded as “did not show spatial repellencies”. Also, in experiment [2], the “Minimum Effective Dose (MED)” value is given as over 0.187 mg/cm^2 and the “topical repellency (in words)” value is “did not show any topical repellencies”.
In the case of `CCOC(=O)c1ccccc1OC` [E2MOB, ethyl 2-methoxybenzoate], in experiment [1], the “RD50 (30 min), half-repellent dose” value came to 8.83 μg/cm^2 and the “30-minute RD50 compared with that of DEET” value was “significantly lower than that of DEET”. In addition, the “topical repellency (in words)” value in experiment [2] was “did not exhibit topical repellency”.
As to `CCOC(=O)c1cccc(N)c1` [E3AB, ethyl 3-aminobenzoate], in experiment [1], the “RD50 (30 min), half-repellent dose” value was over 100 μg/cm^2; the “RD50 (60 min), half-repellent dose” value was over 100 μg/cm^2; the “spatial repellency (in words)” value was “did not show any spatial repellencies”. Also, in experiment [2], the “Minimum Effective Dose (MED)” value was 0.039 mg/cm^2.
As to `CCOC(=O)c1ccc(OC)cc1` [E4MOB, ethyl 4-methoxybenzoate], the “30-minute RD50 compared with that of DEET” value in experiment [1] is reported as “significantly lower than that of DEET”. Moreover, in experiment [2], the “Minimum Effective Dose (MED)” value is listed as over 0.187 mg/cm^2 and the “topical repellency (in words)” value was “did not show any topical repellencies; also recorded: did not exhibit topical repellency”.
In the case of `CCOC(=O)c1ccccc1N` [EA, ethyl anthranilate], the “30-minute RD50 compared with that of DEET” value in experiment [1] is “significantly lower than that of DEET”. Moreover, in experiment [2], the “Minimum Effective Dose (MED)” value was found to be 0.037 mg/cm^2.
Take `CCOC(=O)c1ccccc1` [EB, ethyl benzoate]: in experiment [1], the “RD50 (30 min), half-repellent dose” value is recorded as over 100 μg/cm^2; the “RD50 (60 min), half-repellent dose” value is over 100 μg/cm^2; the “spatial repellency (in words)” value is on record as “did not show spatial repellencies”. For the same compound, in experiment [2], the “Minimum Effective Dose (MED)” value is over 0.187 mg/cm^2 and the “topical repellency (in words)” value is “did not show any topical repellencies”.
As to `CCOC(=O)c1ccccc1NC=O` [EFA, ethyl N-formylanthranilate], in experiment [1], the “RD50 (30 min), half-repellent dose” value is given as over 100 μg/cm^2; the “RD50 (60 min), half-repellent dose” value was over 100 μg/cm^2; the “spatial repellency (in words)” value is “did not show spatial repellencies”. The “Minimum Effective Dose (MED)” value in experiment [2] was 0.0062 mg/cm^2. Moreover, the “MED, times lower than the initial screening dose” value in experiment [2] (relative to initial screening dose of 0.187 mg/cm^2) is given as 30 times.
As to `CCC(C)OC(=O)N1CCCCC1CCO` (centres unmarked) [Icaridin, 1-(1-Methylpropoxycarbonyl)-2-(2-hydroxyethyl)piperidine, reference compound], the “Minimum Effective Dose (MED)” value in experiment [2] was 0.0150±0.004 mg/cm^2 and 0.0150 mg/cm^2.
As to `COC(=O)c1ccccc1S(N)(=O)=O` [M2ASB, methyl 2-(aminosulfonyl)benzoate], in experiment [1], the “RD50 (30 min), half-repellent dose” value is reported as over 100 μg/cm^2; the “RD50 (60 min), half-repellent dose” value is over 100 μg/cm^2; the “spatial repellency (in words)” value is listed as “did not show spatial repellencies”. Further, in experiment [2], the “Minimum Effective Dose (MED)” value is over 0.187 mg/cm^2 and the “topical repellency (in words)” value is listed as “did not show any topical repellencies”.
As to `COC(=O)c1ccccc1Cl` [M2CB, methyl 2-chlorobenzoate], the “30-minute RD50 compared with that of DEET” value in experiment [1] is recorded as “not significantly different from that of DEET”. In experiment [2], the “Minimum Effective Dose (MED)” value is on record as 0.164 mg/cm^2 and the “topical repellency (in words)” value is “demonstrated repellency at doses lower than 0.187 mg/cm^2 on at least one test subject”.
`COC(=O)c1ccccc1C` [M2MB, methyl 2-methylbenzoate]: in experiment [1], the “RD50 (30 min), half-repellent dose” value is on record as over 100 μg/cm^2; the “RD50 (60 min), half-repellent dose” value is reported as over 100 μg/cm^2; the “spatial repellency (in words)” value was “did not show spatial repellencies”. Moreover, in experiment [2], the “Minimum Effective Dose (MED)” value is 0.250 mg/cm^2 and the “topical repellency (in words)” value is reported as “demonstrated repellency at doses lower than 0.187 mg/cm^2 on at least one test subject”.
As for `COC(=O)c1cccc(C)c1` [M3MB, methyl 3-methylbenzoate], in experiment [1], the “RD50 (30 min), half-repellent dose” value is given as over 100 μg/cm^2; the “RD50 (60 min), half-repellent dose” value was over 100 μg/cm^2; the “spatial repellency (in words)” value is “did not show spatial repellencies”. Moreover, in experiment [2], the “Minimum Effective Dose (MED)” value worked out at 0.219 mg/cm^2 and the “topical repellency (in words)” value was “demonstrated repellency at doses lower than 0.187 mg/cm^2 on at least one test subject”.
Turning to `COC(=O)c1cccc(OC)c1` [M3MOB, methyl 3-methoxybenzoate], in experiment [1], the “30-minute RD50 compared with that of DEET” value is listed as “not significantly different from that of DEET”. Further, in experiment [2], the “Minimum Effective Dose (MED)” value is given as 0.266 mg/cm^2 and the “topical repellency (in words)” value is “demonstrated repellency at doses lower than 0.187 mg/cm^2 on at least one test subject”.
For `COC(=O)c1ccc(N)cc1` [M4AB, methyl 4-aminobenzoate], in experiment [1], the “RD50 (30 min), half-repellent dose” value is recorded as over 100 μg/cm^2; the “RD50 (60 min), half-repellent dose” value is on record as over 100 μg/cm^2; the “spatial repellency (in words)” value was “did not show spatial repellencies”. In experiment [2], the “Minimum Effective Dose (MED)” value is recorded as over 0.187 mg/cm^2 and the “topical repellency (in words)” value is listed as “did not show any topical repellencies”.
With `COC(=O)c1ccc(Cl)cc1` [M4CB, methyl 4-chlorobenzoate], in experiment [1], the “RD50 (30 min), half-repellent dose” value is listed as over 100 μg/cm^2; the “RD50 (60 min), half-repellent dose” value was over 100 μg/cm^2; the “spatial repellency (in words)” value was “did not show spatial repellencies”. In experiment [2], the “Minimum Effective Dose (MED)” value was over 0.187 mg/cm^2 and the “topical repellency (in words)” value is listed as “did not show any topical repellencies”.
On to `CNc1ccccc1C(=O)OC` [MMA, methyl N-methylanthranilate], for which the “30-minute RD50 compared with that of DEET” value in experiment [1] is “significantly lower than that of DEET”.
Still for that read-out and setting: the same measure for `CC(C)COC(=O)c1ccccc1N` [iBA, iso-butyl anthranilate]: “not significantly different from that of DEET”.
As to `CCCCOC(=O)c1ccccc1N` [nBA, n-butyl anthranilate], in experiment [1], the “RD50 (30 min), half-repellent dose” value is reported as over 100 μg/cm^2 and the “spatial repellency (in words)” value was “did not show any spatial repellencies”.

Values taken from patent US20240292836A1, “AGENTS FOR REPELLING, KNOCKING DOWN, AND/OR KILLING BLOOD-SUCKING ARTHROPODS AND USES THEREOF” (The United States of America, as represented by the …, priority 2023, published 2024).
